Measurements taken from patent US11786498B2, “Sacubitril calcium salts” (Novartis AG, priority 2015, dated 2023).
Counter-ions that a name gives are not always drawn. One block for each molecule: values may come before it.

How the values were obtained:
Type in all cases: physicochemical
[1] = Water uptake / hygroscopicity at relative humidity (sorption-desorption)
[2] = Solvent loss as a function of temperature as measured by TG/DTA
Protocol: (ii) Thermogravimetric/Differential Thermal Analysis (TG/DTA)
Differential scanning calorimetry was conducted for each crystalline form using a Seiko TG/DTA Instrument. For each analysis, the DSC cell/sample chamber was purged with 100 mL/min of ultra-high purity nitrogengas. The instrument was calibrated with high purity indium. The heating rate was 10° C. per minute in the temperature range between 25 and 300° C. The heat flow, which was normalized by sample weight, was plotted versus the measured sample temperature. The data were reported in units of watts/gram (“W/g”). The plot was made with the endothermic peaks pointing down. The endothermic melt peak (melting point) was evaluated for extrapolated onset temperature.

[3] = Flowability of the solid
[4] = Solid form stability on wet granulation, equilibration, humidity exposure, compression, grinding (XRPD); conditions: for form change on wet granulation: wet granulation (with water)
Protocol: (i) X-Ray Powder Diffraction (XRPD) The X-ray powder diffraction pattern was determined using a Scintag XDS 2000 diffractometer instrument. The X-ray diffraction pattern was recorded between 2° and 35° (2θ) with CuK radiation (45 kV, 40 mA). The measurements were performed at about 45 kV and 40 mA under the following conditions: • Scan rate: 0.5° (20)/min • Chopper increment: 0.02° • Slits (from left to right): 2, 3, 0.3, 0.2 mm

behaviour at humidity (in words) ([1]; 25° C., relative humidity from 0% to 80%): remains dry
water uptake ([1]; at 95% RH): 2.0%
form retention during take-up and release of water ([1]; sorption-desorption experiments): retained
water levels as obtained [2]: 1.4-4.1%
Loss on drying (LOD) ([2]; TG/DTA, 10° C./min, nitrogen, listed as HB): 3.4%
temperature required for complete dehydration ([2]; heating): above 97 °C
flowability [3]: good flowability properties
SMILES: CCOC(=O)[C@H](C)CC(Cc1ccc(-c2ccccc2)cc1)NC(=O)CCC(=O)O (stereo partly drawn) [Modification HB, calcium salt of N-(3-carboxyl-1-oxopropyl)-(4S)-(p-phenylphenylmethyl)-4-amino-(2R)-methyl butanoic acid ethyl ester]

hygroscopicity (in words) [1]: only slightly hygroscopic
water uptake, maximum reached ([1]; can reach up to): up to 11%
hygroscopicity (water uptake) under typical humidity levels ([1]; up to 75% RH): < 2%
thermal stability [2]: thermally stable up to its melting point
form change on equilibration in solvent ([4]; equilibration in water or ethanol/water 1:1): Hydrate formation was observed
form change on wet granulation [4]: Hydrate formation was observed
SMILES: CCOC(=O)[C@H](C)CC(Cc1ccc(-c2ccccc2)cc1)NC(=O)CCC(=O)O (stereo partly drawn) [Modification B, calcium salt of N-(3-carboxyl-1-oxopropyl)-(4S)-(p-phenylphenylmethyl)-4-amino-(2R)-methyl butanoic acid ethyl ester]

water uptake ([1]; at 80% RH): 15.2%
form change on exposure to elevated humidity ([4]; >75% RH): turns into a crystalline hydrate
form change after compression ([4]; compression for 5 min at 10 t, XRPD): No change of the amorphous form
form change after grinding ([4]; grinding, XRPD): No change of the amorphous form
form change on wet granulation [4]: rapidly leads to hydrate formation
SMILES: CCOC(=O)[C@H](C)CC(Cc1ccc(-c2ccccc2)cc1)NC(=O)CCC(=O)O (stereo partly drawn) [amorphous AHU377 calcium salt, calcium salt of N-(3-carboxyl-1-oxopropyl)-(4S)-(p-phenylphenylmethyl)-4-amino-(2R)-methyl butanoic acid ethyl ester]

hygroscopicity (in words) [1]: hygroscopic
water uptake ([1]; at 95% RH): 13.8%
SMILES: CCOC(=O)[C@H](C)CC(Cc1ccc(-c2ccccc2)cc1)NC(=O)CCC(=O)O (stereo partly drawn) [Modification A, calcium salt of N-(3-carboxyl-1-oxopropyl)-(4S)-(p-phenylphenylmethyl)-4-amino-(2R)-methyl butanoic acid ethyl ester]
